Test [1] deals with Drosophila suzukii. Briefly: Semi-field cage oviposition deterrence, potted blueberry bushes. In kind it is in vivo. To be noted: N=10; for fewer eggs laid in treated berries than in control berries: sachet 2.5 mL, 24 h. Here is the method: Semi-field cage experiments were conducted from June until July to evaluate the oviposition deterrent effects of ethyl butanoate, ethyl (E)-but-2-enoate, and 2-pentylfuran against D. suzukii. These experiments are considered semi-field because they took place in an isolated open field surrounded by woods with potted plants inside outdoor cages. The cages were constructed using polyvinyl chloride (PVC) pipes (3.8 cm diameter) to construct 1.8 m×1.8 m×1.8 m frames. Screen tents (Lumite® screen portable field cages; BioQuip, CA, USA) were placed over the PVC frames, and large nails were used to secure the tents to the ground (FIG. 6A). Cages were spaced 10 m apart. To obtain blueberries for the experiment, prior to the start of the experiment, field-grown highbush blueberry (Vaccinium corymbosum L. var. ‘Bluecrop’) clusters were bagged early in the season with cloth bags when they were still green to prevent infestation from resident D. suzukii populations for use in the experiment. In addition, 80 3-to-4-year-old potted blueberry bushes were stripped of their berries and used for the experiment. On the day of testing, two bushes were placed in each cage (FIG. 6B). Each bush in the tent was surrounded by a metal tomato cage. The bagged blueberry fruit clusters in the field were clipped and brought inside the cages. Clusters of 10 berries were created and placed in water picks. Five berry clusters were distributed randomly and evenly on each tomato cage at different heights using green twist ties (FIG. 6B). The sachets used for the treatments were prepared according to the methods described by Gale et al. (2024). They were constructed from 8 cm strips of polyethylene tubing (5.1 cm width, 2 MIL thickness; ULINE, Pleasant Prairie, WI, USA) and polyester felt (Grainger, Lake Forest, IL, USA). One end of the polyethylene tubing was sealed with an impulse sealer. A 5 cm strip of felt was placed inside the sachet's open end, and a 2.5 mL aliquot of each treatment was pipetted onto the felt. The open end was then sealed shut with the impulse sealer, entirely sealing the saturated felt. A hole was punched at the top of each sachet, away from the treatment area to avoid damaging the sealed section, and green twist ties were used to hang the sachets in the center of a bush (FIG. 6B). Before loading the sachets, the weights of the empty sachets were taken. The sachets were weighed again directly after loading with the compounds and then a final time after the 24-hour test period to measure the emission rates of each volatile. In each cage, one of the bushes contained a sachet with the test volatile, while the other contained a blank sachet (control). Sachets were hung in the bushes 30 minutes prior to the start of experiments. Choice tests included: 1) control versus control; 2) control versus ethyl butanoate; […]) control versus ethyl (E)-but-2-enoate; and 4) control versus 2-pentylfuran. Fifty flies (1:1 male: female) were released in each cage at 18:00 hrs. After 24 hours, the berry clusters were collected and placed in 118 mL plastic cups. Berries were inspected under a dissection microscope for the number of eggs laid and were then incubated in 236.6 mL (8-oz) deli containers lined with two cotton pads on a laboratory bench at 22±2° C. and 55±5% relative humidity for two weeks to monitor for adult emergence. The study was replicated 10 times for each choice combination (N=4 choice combinations×2 bushes each×10 replicates=total of 80 bushes; N=50 flies×4 choice combinations×10 replicates=total of 2,000 flies). Semi-field cage data were analyzed using paired t-tests to determine differences between the number of eggs laid and adults that emerged from treated berries compared to control berries, and survival data were analyzed using two-way analysis of variance (ANOVA) (R statistical software version 4.1.1; R Development Core Team, Vienna, Austria). […]

The test system of test [2] is Drosophila suzukii. Kind of test: Field cage experiments, cultivated highbush blueberry bushes. In kind it is in vivo. Here is the method: Field cage experiments were conducted from June until July using highbush blueberries (V. corymbosum var. ‘Bluecrop’). The studies were carried out in 5.5 m long×2.7 m tall cages, constructed with a PVC pipe frame covered with No-See-Um mesh (Quest Outfitters Inc., Sarasota, FL, USA) (FIG. 6C). Cages were placed in separate rows within a blueberry field, with bushes spaced approx. 0.76 m apart within the rows and 3.05 m between rows. Each row contained two cages at least 9 m in distance. To avoid interference between treatments, alternate cages were used during testing, ensuring that no adjacent cages contained sachets simultaneously. Two, 3-m rebar poles were used to reinforce the mesh on the long sides of each cage as well as 10 cm long garden staples to hold mesh flush to the ground, while the shorter ends were secured with clips to allow access to the cage. Each cage contained five blueberry bushes approx. 1.5 m in height. Sachets containing ethyl butanoate, ethyl (E)-but-2-enoate, or 2-pentylfuran were prepared as described before. To test the effects of the repellents on the treated (focal) bush and in neighboring bushes at various distances, two sachets of the same compound were hung from one of the end bushes in each cage (FIG. 6D). There were four treatments: 1) ethyl butanoate, 2) ethyl (E)-but-2-enoate, 3) 2-pentylfuran, and 4) control (no repellent). Each treatment was replicated four times, with each cage assigned to a single treatment, resulting in a total of 16 cages. Twenty-four hours after deploying the sachets, 120 flies (approximately 60 males and 60 females) were released into each cage at 18:00 hrs (N=120 flies×4 treatments×4 replicates=1,920 total flies). To ensure even distribution within the cages, 30 flies were released at four equidistant points between the bushes. A pre-sampling of the berries, conducted before the flies were released, confirmed the absence of any infestation. Berries were then collected 1-, 2-, and 3-days post-treatment. From every other bush (starting at the focal bush) in the cage, 50 berries from the top half and 50 from the bottom half were collected into two separate 236.6 mL deli containers lined with two cotton pads. From each berry sample, a random subsample of 10 berries were examined and egg counts recorded before being returned to the original container. The blueberries were incubated on a light bench in the laboratory for up to two weeks, as previously described, and adult emergence was recorded. The sachets were weighed before deployment and 3 days after deployment to measure the emission rates of each compound. Field cage data for both oviposition and adult emergence were non-normal, so non-parametric tests were applied using R statistical software. The effects of ‘Treatment’ (untreated control, ethyl butanoate, ethyl (E)-but-2-enoate, and 2-pentylfuran) across ‘Bush Position’ (focal, center, end) and ‘Day After Treatment’ (1, 2, 3 DAT) were assessed using the Kruskal-Wallis Test. When significant Treatment effects were found, post-hoc separation was performed using Dunn's Test.

Structures are written as SMILES.

For `C/C=C/C(=O)OCC` [ethyl (E)-but-2-enoate], in the test with Drosophila suzukii [1], the “deterrence index (DI) based on number of eggs laid” value (shortened to “deterrence index (DI) based”) was “performed similarly and were significantly different from the control”. For the same compound, the “fewer flies (adult progeny) emerging from treated berries than from control berries” value in the test on Drosophila suzukii [1] (berries incubated two weeks) was determined as 78%. The “fewer eggs laid in treated berries than in control berries” value (shortened to “fewer eggs laid in treated berries than”) with Drosophila suzukii [1] is 75%. The adult emergence result in the test with Drosophila suzukii [2] (1 DAT, center bush) is reported as “fewest adults emerge”; in the test on Drosophila suzukii [2] (1 DAT, end bush), “fewest adults emerge”; in the test on Drosophila suzukii [2] (2 DAT, center bush), “fewest adults emerge”; with Drosophila suzukii [2] (2 DAT, end bush) it was “fewest adults emerge”; with Drosophila suzukii [2] (3 DAT, center bush), “lowest adult emergence”; in the test on Drosophila suzukii [2] (3 DAT, end bush), “significantly different compared to the other repellents”. The adult emergence entry in the test on Drosophila suzukii [2] (3 DAT, focal bush) was “lowest adult emergence”. Besides, the egg counts entry is “fewest eggs” in the test on Drosophila suzukii [2] (1 DAT, end bush); “lowest egg counts” with Drosophila suzukii [2] (2 DAT, center bush); “lowest egg counts” in the test with Drosophila suzukii [2] (2 DAT, end bush); “lowest egg count” in the test with Drosophila suzukii [2] (3 DAT, center bush); “lowest egg count” in the test on Drosophila suzukii [2] (3 DAT, end bush); “lowest egg count” in the test with Drosophila suzukii [2] (3 DAT, focal bush).
For `CCCCCc1ccco1` [2-pentylfuran, reference compound], the “deterrence index (DI) based” value with Drosophila suzukii [1] was “performed similarly and were significantly different from the control”. Also, the “difference in adult emergence between untreated and treated berries” value in the test on Drosophila suzukii [1] (berries incubated two weeks) was “nonsignificant”. In the test on Drosophila suzukii [1], the “fewer eggs laid in treated berries than” value is given as 67%. Moreover, the egg counts entry in the test on Drosophila suzukii [2] (1 DAT, central bush) was “lower”; with Drosophila suzukii [2] (1 DAT, end bush), “fewest eggs”. Moreover, the adult emergence result in the test with Drosophila suzukii [2] (3 DAT, center bush) is listed as “lowest adult emergence”; in the test with Drosophila suzukii [2] (3 DAT, focal bush) it was “lowest adult emergence”.
As to `CCCC(=O)OCC` [ethyl butanoate], in the test on Drosophila suzukii [1], the “deterrence index (DI) based” value is “performed similarly and were significantly different from the control”; the “fewer eggs laid in treated berries than” value was 54%. For the same compound, the “fewer flies (adult progeny) emerging from treated berries than from control berries” value in the test with Drosophila suzukii [1] (berries incubated two weeks) is reported as 59%.

The values above are taken from patent US20250169495A1, “COMPOSITIONS AND METHODS FOR CONTROLLING DROSOPHILA FLIES” (Rutgers, The State University of New Jersey, priority 2023, published 2025).
